For series [1], the target named is Amyloid-beta precursor protein (Homo sapiens) (UniProt P05067). In words: Inhibition of wild type amyloid beta (1 to 42) (unknown origin) aggregation at 50 uM by Thioflavin-T fluorescence assay.
Series [2] can be described thus: Drug level treated with kaempferol after 4 hrs by LC/Q Tof-MS/MS analysis. It counts as physicochemical.
The target in series [3] is Amyloid-beta precursor protein (Homo sapiens) (UniProt P05067). Nature of the series: Inhibition of nucleation phase of HFIP-treated 15N-labelled wild type Amyloid beta (1 to 42) (unknown origin) assessed as time required for nucleation at 50 uM by Thioflavin-T fluorescence assay in presence of fibril seed.
Series [4] shares this target. In words: Inhibition of wild type Amyloid beta (1 to 42) (unknown origin) aggregation at 50 to 100 uM under anaerobic condition after 5 days by Thioflavin-T fluorescence assay.
For series [5] the target is unchanged. Nature of the series: Inhibition of elongation phase of HFIP-treated 15N-labelled wild type Amyloid beta (1 to 42) (unknown origin) at 50 uM by Thioflavin-T fluorescence assay in presence of fibril seed.
Series [6] shares this target. In words: Inhibition of Amyloid beta (1 to 42) 13,14 A2 mutant (unknown origin) aggregation at 50 uM by Thioflavin-T fluorescence assay.
The nature of series [7]: Drug degradation assessed as autoxidation at 500 uM at 4 degC after 4 hrs by UV-visible spectrophotometric analysis in presence of wild type Amyloid beta (1 to 42) (unknown origin). It counts as physicochemical.
Series [8] can be described thus: Drug degradation assessed as autoxidation at 50 uM under argon atmosphere at 37 degC after 2 to 48 hrs by UV-visible spectrophotometric analysis in presence of wild type Amyloid beta (1 to 42) (unknown origin). It counts as physicochemical.
The target of series [9] is Amyloid-beta precursor protein (Homo sapiens) (UniProt P05067). Nature of the series: Inhibition of wild type Amyloid beta (1 to 42) (unknown origin) aggregation at 50 uM under ambient condition by Thioflavin-T fluorescence assay.
Series [10] is described as follows: Stability of the compound assessed as compound remaining after 48 hrs by HPLC analysis. It counts as physicochemical. The following applies: read-out: Stability.
The target of series [11] is Amyloid-beta precursor protein (Homo sapiens) (UniProt P05067). The following applies: 500 uM.
Description: Inhibition of elongation phase of HFIP-treated 15N-labelled wild type Amyloid beta (1 to 42) (unknown origin) at 500 uM by Thioflavin-T fluorescence assay in presence of fibril seed
Series [12] in a line: Drug metabolism assessed as 2,4,6-trihydroxybenzaldehyde formation after 4 hrs by LC/Q Tof-MS/MS analysis. It counts as physicochemical.
Series [13] is described as follows: Drug degradation after 48 hrs by HPLC analysis. The following applies: read-out: Drug degradation. It counts as physicochemical.
A short description of series [14]: Drug degradation assessed as autoxidation at 50 uM at 37 degC after 2 to 48 hrs by UV-visible spectrophotometric analysis in presence of wild type Amyloid beta (1 to 42) (unknown origin). It is filed as physicochemical.
Series [15] is described as follows: Drug degradation assessed as autoxidation at 500 uM at 4 degC after 1 hr by UV-visible spectrophotometric analysis in presence of wild type Amyloid beta (1 to 42) (unknown origin) relative to morin and datiscetin. It counts as physicochemical. The following applies: read-out: Drug degradation.
The target of series [16] is Amyloid-beta precursor protein (Homo sapiens) (UniProt P05067). The following applies: 50 uM.
Description: Inhibition of wild type Amyloid beta (1 to 42) (unknown origin) aggregation at 50 uM after 48 hrs by TEM analysis

Active and inactive are the calls of the source. No cut-off for these calls is given here. Where only a bound is given, the exact number is not on record here.

Chain of Amyloid-beta precursor protein (Homo sapiens) (P05067 whole entry): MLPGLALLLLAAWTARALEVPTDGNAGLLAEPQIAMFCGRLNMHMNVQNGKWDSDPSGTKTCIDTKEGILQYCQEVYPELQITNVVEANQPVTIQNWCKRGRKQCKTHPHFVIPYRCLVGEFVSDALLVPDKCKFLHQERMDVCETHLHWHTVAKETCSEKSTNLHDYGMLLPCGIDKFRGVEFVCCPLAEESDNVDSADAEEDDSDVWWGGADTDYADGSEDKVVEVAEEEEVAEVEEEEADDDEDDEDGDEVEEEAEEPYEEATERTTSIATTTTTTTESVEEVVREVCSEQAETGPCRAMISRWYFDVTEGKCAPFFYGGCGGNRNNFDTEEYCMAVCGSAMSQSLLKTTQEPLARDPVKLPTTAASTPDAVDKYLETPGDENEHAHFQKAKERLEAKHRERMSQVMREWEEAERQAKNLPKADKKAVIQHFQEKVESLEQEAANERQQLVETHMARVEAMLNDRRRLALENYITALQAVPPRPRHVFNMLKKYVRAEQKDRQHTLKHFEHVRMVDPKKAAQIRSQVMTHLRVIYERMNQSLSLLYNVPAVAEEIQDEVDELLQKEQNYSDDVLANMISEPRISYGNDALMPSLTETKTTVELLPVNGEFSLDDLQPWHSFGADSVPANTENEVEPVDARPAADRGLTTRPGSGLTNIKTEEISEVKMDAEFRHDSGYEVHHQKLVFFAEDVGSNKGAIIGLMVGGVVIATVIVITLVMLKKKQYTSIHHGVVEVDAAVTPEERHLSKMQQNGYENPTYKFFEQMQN

Consider `O=Cc1c(O)cc(O)cc1O` [PHLOROGLUCINALDEHYDE], for which, in [1], the inhibition result was “Active”. For the same molecule, the Drug metabolism result in series [2] is “metabolite_detected”. Moreover, the TIME in series [3] amounted to 3 h.

Take `O=c1cc(-c2ccc(O)cc2)oc2cc(O)cc(O)c12` [APIGENIN]: the inhibition entry in series [1] is “Active”. For the same molecule, in series [2], the Drug metabolism entry was “metabolite_detected”. Moreover, in series [3], the TIME was 3 h.

With `O=C(O)C(=O)c1c(O)cc(O)cc1O`, the inhibition result in series [1] was “Active”. In series [2], the Drug metabolism result is given as “metabolite_detected”. Further, in [3], the TIME came to 3 h.

For `O=C(O)c1ccc(O)cc1` [PARABEN], in series [1], the inhibition entry is “Active”. In addition, the Drug metabolism entry in [2] is “metabolite_detected”. The TIME in series [3] worked out at 3 h.

For the molecule `O=c1c(O)c(-c2ccc(O)cc2O)oc2cc(O)cc(O)c12` [MORIN], the inhibition result in series [4], in series [5], in series [6] and in [9] was “Active” each time. The Stability entry in series [7] and in [8] was “Stable” throughout. Also, the remaining at 48 h in series [10] is greater than 80%. Further, the TIME in series [3] turned out to be 10 h.

Consider `O=c1c(OOc2c(-c3ccc(O)cc3)oc3cc(O)cc(O)c3c2=O)c(-c2ccc(O)cc2)oc2cc(O)cc(O)c12`, for which the inhibition result in series [1] was “Active”. In addition, in series [2], the Drug metabolism result is recorded as “metabolite_detected”. Besides, in series [3], the TIME was 3 h.

As to `O=C(O)C(=O)c1ccc(O)cc1`, the inhibition entry in [1] was “Active”. Besides, the Drug metabolism result in series [2] is recorded as “metabolite_detected”. The TIME in [3] was 3 h.

Consider `O=C(O)c1c(O)cc(O)cc1O`, for which the inhibition result in series [1] is “Active”. The Drug metabolism result in series [2] is listed as “metabolite_detected”. The TIME in series [3] amounted to 3 h.

Regarding `O=c1c(O)c(-c2ccc(O)cc2)oc2cc(O)cc(O)c12` [KAEMPFEROL], the inhibition entry in series [11], in [4] and in series [9] was “Active” throughout. Moreover, in [12], the Drug metabolism entry is “metabolite_detected”. In addition, the degraded at 48 h in series [13] was greater than 80%. Besides, the Stability entry is “Unstable” in [14] and “Stable” in series [8]. The degraded at 1 h, 500 µM in [15] turned out to be 70%. Also, the TIME in [3] was determined as 3 h.

For the molecule `O=c1c(O)c(-c2ccccc2O)oc2cc(O)cc(O)c12` [DATISCETIN], the inhibition result in series [4], in series [5], in [16], in [6] and in series [9] was “Active” each time. In addition, the Stability entry in series [7] and in [8] was “Stable” throughout. For the same molecule, the remaining at 48 h in [10] is greater than 80%. In addition, the TIME in series [3] came to 6 h.

For the molecule `O=C1Oc2cc(O)cc(O)c2C1=O`, in series [1], the inhibition result is “Active”. Moreover, the Drug metabolism result in series [2] is “metabolite_detected”. Moreover, the TIME in series [3] was determined as 3 h.

As to `O=C1C(=O)C(O)(c2ccc(O)cc2)Oc2cc(O)cc(O)c21` (stereo not drawn), the inhibition entry in [1] was “Active”. Moreover, the Drug metabolism entry in series [2] is “metabolite_detected”. For the same molecule, in series [3], the TIME stood at 3 h.

Values taken from ChEMBL document CHEMBL3745699, “Structural insights into mechanisms for inhibiting amyloid β42 aggregation by non-catechol-type flavonoids” (Bioorg Med Chem, 2016).
